Key:
Format in all cases: in vivo
Bean Aphid (Aphis fabae) = assay: Bean aphid (Aphis fabae), nasturtium plant dip test; details: 72 h, infested nasturtium plants dipped, determined after 3 days, read-out: mortality of bean aphid in comparison with untreated controls
[1] = test system: Green Peach Aphid (Myzus persicae), mixed life stages; assay: Green peach aphid (Myzus persicae), mixed life stages, bell pepper leaf dip test; details: foliar, 120 h, infested bell pepper leaves dipped, determined after 5 days, read-out: mortality of green peach aphid in comparison with untreated controls
Method: (§1) The active compounds were formulated in a mixture of 50 vol.-% acetone:50 vol.-% water. A nonionic surfactant (Kinetic®) was included in the solution at a volume of 0.01% v/v.
(§2) In the following tests, the formulated solutions of the active compounds were diluted to an active ingredient concentration of 300 ppm and the diluted solutions were applied in the below mentioned tests.
(§3) II.1 Cotton Aphid (Aphis gossypil), Mixed Life Stages • Cotton plants at the cotyledon stage were infested prior to treatment by placing a heavily infested leaf from the main aphid colony on top of each cotyledon. The aphids were allowed to transfer overnight and the host leaf was removed. The infested cotyledons were then dipped and agitated in the test solution for 3 seconds and allowed to dry in a fume hood. […] Aphid mortality on the treated plants, relative to mortality on untreated check plants, was determined after 5 days. • In this test compounds each of examples 12 to 36, 38, 39, 40 and 41 at 300 ppm provided at least 90% mortality of cotton aphid (Aphis gossypii, mixed life stages) in comparison with untreated controls. […] Aphid mortality on the treated plants, relative to mortality on untreated check plants, was determined after 5 days. • In this test compounds each of examples 12 to 36, 38, 39, 40 and 41 at 300 ppm provided at least 90% mortality of green peach aphidin comparison with untreated controls. […]

[2] = test system: Cotton Aphid (Aphis gossypii), mixed life stages; assay: Cotton aphid (Aphis gossypii), mixed life stages, cotyledon dip test; details: 120 h, infested cotton cotyledons dipped, determined after 5 days, read-out: mortality of cotton aphid in comparison with untreated controls
Method: as §1, §2, §3

Measured: mortality at 300 ppm

Cc1cncc(S(=O)(=O)N(C)C)c1C#N [Example 12, 4-Cyano-5-methyl-pyridine-3-sulfonic acid dimethylamide]
≥ 90%: all assays above

From patent US20080207447A1, “Cyanopyridine Pesticides” (BASF Aktiengesellschaft, priority 2005, published 2008)
